# According to patent US20060233738A1, “Composition for promoting production of type 1 collagen and/or elastin” (priority 2003, published 2006):
# Key:
# Assay type in all cases: cell-based
# [1] = tested on: type I collagen; assay: Promotion of type I collagen production in a three-dimensional human skin model (TESTSKIN LSE-high); settings: concentration 0.05% in dipropylene glycol, 2 x 24 hours
# Excerpt: (§1) Three-dimensional human skin models are widely used in safety evaluations and effectiveness evaluations as pseudo human skins. In this evaluation, TESTSKIN (LSE-high) (manufactured by Toyobo) was used as a three-dimensional human skin model, and cultured in accordance with the protocol specified in the attached document. Silybum marianum extract containing 70% silymarin (manufactured by Indina), soybean lecithin (manufactured by Wako Pure Chemical Industries) and retinoic acid (all-trans-retinoic acid manufactured by Wako Pure Chemical Industries) were dissolved to respective concentrations in dipropylene glycol (manufactured by Wako Pure Chemical Industries). […]
# (§2) Next, 60 μl of each tested substance was added to tissues in an assay ring and the tissues were cultured for 24 hours. […] Protein in the sample was determined using a DC protein assay kit (manufactured by Bio-Rad Laboratories) based on the Lowry method (Non-patent Literature 11), and 20 mM Tris-HCl (pH 7.5) was added to achieve 2 μg/μl. […]
# The obtained sample was used to evaluate the property to promote type I collagen production using the western blotting method. […] The obtained substance was washed, and then detected using ECL plus western blotting detection reagent (manufactured by Amersham Biosciences). […]
# [2] = tested on: type I collagen; assay: Promotion of type I collagen production in normal human skin fibroblast cells (western blotting, image analysis); settings: NFB cells, 24 hours
# Description: (§3) Each compound was dissolved in DMSO to produce a stock solution, and an appropriate amount of each stock solution was added to a culture solution and applied to cells. By following the same procedure, a stock solution was prepared by dissolving silymarin (silymarin group manufactured by Sigma-Aldrich) in the aforementioned DMSO, and an appropriate amount of the stock solution was added to a culture solution to check the effect of adding silymarin.
# (§4) Normal human skin fibroblast cells (hereinafter referred to as “NFB”), provided as CCD1059 (purchased from Dainippon Pharmaceutical), were cultured in a skin fibroblast cell culture medium (FGM manufactured by Sanko Junyaku) at 37° C. in a 5% CO2 incubator. FGM was prepared by adding a human skin fibroblast cell growth factor (1 μg/ml), insulin ([…]), gentamycin (50 μg/ml) and amphotericin B (50 μg/ml) to a base fibroblast cell culture medium. This test used cells whose passage number was 3 to 7. […]
# (§5) Protein in the sample was separated by SDS-PAGE and transferred to a nitrocellulose membrane. […] The obtained substance was washed, and then detected using ECL plus western blotting detection reagent (manufactured by Amersham Biosciences). The detected band was scanned using an image scanner (manufactured by Amersham Biosciences) and analyzed using image master software to produce numerical data.
# [3] = tested on: elastin; assay: Promotion of elastin production in a three-dimensional human skin model (TESTSKIN LSE-high); settings: concentration 0.05% in dipropylene glycol, 2 x 24 hours
# Excerpt: as §1, §2
# In the same manner as described in the aforementioned evaluation of the property to promote type I collagen production in a three-dimensional human skin model, the property to promote elastin production was evaluated using a three-dimensional human skin model.
# [4] = tested on: elastin; assay: Promotion of elastin production in normal human skin fibroblast cells (western blotting, image analysis); settings: NFB cells, 24 hours
# Description: as §3, §4, §5
structure (smiles),measurement,setting,value
"CC1=C(/C=C/C(C)=C/C=C/C(C)=C/C(=O)O)C(C)(C)CCC1 [Retinoic acid, all-trans-retinoic acid]",Relative expression level (full-length type I collagen),[1],2.0
same,Ratio to untreated control (full-length type I collagen),[2]; treated concentration 250 nM,2.0
same,Ratio to untreated control (full-length type I collagen),[2]; treated concentration 500 nM,1.4
same,Relative expression level (full-length elastin),[3],3.3
same,Ratio to untreated control (full-length elastin),[4]; treated concentration 250 nM,2.8
same,Ratio to untreated control (full-length elastin),[4]; treated concentration 500 nM,1.4
